Data on 5 compounds can be found in patent US5854204A, “Aβ peptides that modulate β-amyloid aggregation” (priority 1996, dated 1998).

Assay [1] addresses T1, Aβ1-40 (Homo sapiens, UniProt P05067). Conditions: for ΔLag (ratio of lag time with test compound to lag time of control): Table V, 100 mole % inhibitor relative to Aβ1-40.
Text: (§1) The nucleation assay is employed to determine the ability of test compounds to alter (e.g. inhibit) the early events in formation of β-AP fibers from monomeric β-AP. […] The time delay before polymerization of β-AP monomer can be quantified as well as the extent of formation of insoluble fiber by light scattering (turbidity). Polymerization reaches equilibrium when the maximum turbidity reaches a plateau. […] The threshold of sensitivity for the measurement of turbidity is in the range of 15-20 μM β-AP. […] This assay can be performed using stirring or shaking to accelerate polymerization, thereby increasing the speed of the assay. Moreover the assay can be adapted to a 96-well plate format to screen multiple compounds.
(§2) HFIP-solubilized peptide is sonicated in a waterbath sonicator for 5 min at highest setting, then evaporated to dryness under a stream of argon. […] Test compounds are dissolved in DMSO at a 100× concentration. […] Ten microliters of the mixture is then added to the bottom of a well of a Corning Costar ultra low binding 96-well plate (Corning Costar, Cambridge Mass.; cat. No. 2500). […] The plate is then returned to the shaker and shaken continuously for 5 hours. Turbidity readings are taken at 15 minute intervals.
(§3) Accordingly a fold increase in lag time of 1.0 indicates no change in lag time, whereas numbers >1.0 indicate an increase in lag time. The "% inhibition of plateau", which is a measure of the ability of the compound to decrease the total amount of aggregation, refers to the reduction of the final turbidity in the presence of the test compound expressed as a percent of the control without the test compound.
Assay [2] deals with T1, Aβ1-40. Description: biochemical. The conditions noted are these: read-out: % Inucl'n (percent reduction in maximum turbidity).
Text: as §1, §2, §3
Assay [3] concerns the target T1, Aβ1-40. The assay can be described thus: Seeded extension assay (thioflavin T fluorescence). In kind it is biochemical. Also noted: Natural β-AP (β-AP1-40) was obtained commercially from Bachem (Torrance, Calif.); purchased Bachem (Torrance, Calif.). Conditions: Table V; 25 mole % inhibitor. The protocol: The seeded extension assay can be employed to measure the rate of Aβ fiber formed in a solution of Aβ monomer following addition of polymeric Aβ fiber "seed". The ability of test compounds to prevent further deposition of monomeric Aβ to previously deposited amyloid is determined using a direct indicator of β-sheet formation using fluorescence. In contrast with the nucleation assay, the addition of seed provides immediate nucleation and continued growth of preformed fibrils without the need for continuous mixing, and thus results in the absence of a lag time before polymerization starts. Since this assay uses static polymerization conditions, the activity of positive compounds in the nucleation assay can be confirmed in this second assay under different conditions and with an additional probe of amyloid structure.
Samples of the solution are then diluted in thioflavin T (Th-T). The polymer-specific association of Th-T with Aβ produces a fluorescent complex that allows the measurement of the extent of fibril formation (Levine, H. (1993) Protein Science 2:404-410). In particular, association of Th-T with aggregated β-AP, but not monomeric or loosely associated β-AP, gives rise to a new excitation (ex) maximum at 450 nm and an enhanced emission (em) at 482 nm, compared to the 385 nm (ex) and 445 nm (em) for the free dye. Small aliquots of the polymerization mixture contain sufficient fibril to be mixed with Th-T to allow the monitoring of the reaction mixture by repeated sampling. A linear growth curve is observed in the presence of excess monomer. The formation of thioflavin T responsive β-sheet fibrils parallels the increase in turbidity observed using the nucleation assay.
To prepare the stock seed, 1 ml of the Aβ monomer preparation, is incubated for approximately 8 days at 37° C. and sheared sequentially through an 18, 23, 26 and 30 gauge needle 25, 25, 50, and 100 times respectively. 2 μl samples of the sheared material is taken for fluorescence measurements after every 50 passes through the 30 gauge needle until the fluorescence units (FU) plateau (approx. 100-150×). Test compounds are prepared by dissolving an appropriate amount of test compound in 1× PBS to a final concentration of 1 mM (10× stock). If insoluble, the compound is dissolved in 1/10 volume of DMSO and diluted in 1× PBS to 1 mM. A further 1/10 dilution is also prepared to test each candidate at both 100 μM and 10 μM.
To perform the seeded extension assay, each sample is set up with 50 μl of 200 μM monomer, 125 FU sheared seed (a variable quantity dependent on the batch of seed, routinely 3-6 μl) and 10 μl of 10× modulator solution. The sample volume is then adjusted to a final volume of 100 μl with 1× PBS. Two concentrations of each modulator typically are tested: 100 μM and 10 μM, equivalent to a 1:1 and a 1:10 molar ratio of monomer to modulator. The controls include an unseeded reaction to confirm that the fresh monomer contains no seed, and a seeded reaction in the absence of any modulators, as a reference to compare against candidate modulators. The assay is incubated at 37° C. for 6 h, taking 2 μl samples hourly for fluorescence measurements. To measure fluorescence, a 2 μl sample of Aβ is added to 400 μl of Thioflavin-T solution (50 mM Potassium Phosphate […] pH 7.5). The samples are vortexed and the fluorescence is read in a 0.5 ml micro quartz cuvette at EX 450 nm and EM 482 nm (Hitachi 4500 Fluorimeter).
The modulators were evaluated in the nucleation and seeded extension assays described in Example 6 and the results are summarized below in Table V. The change in lag time (ΔLag) is presented as the ratio of the lag time observed in the presence of the test compound to the lag time of the control. […] Inhibition (% Inucl'n) is listed as the percent reduction in the maximum observed turbidity in the control at the end of the assay time period. […]
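For % Inhibition of Plateau in this document: Aβ nucleation assay tracking fiber polymerization from monomer by turbidity (light scattering), shaken continuously in 96-well plates, read every 15 min over 5 h, compared with compound-free control.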
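For Fold Increase in Lag Time in this document: Aβ nucleation assay tracking fiber polymerization from monomer by turbidity (light scattering), shaken continuously in 96-well plates, read every 15 min over 5 h, compared with compound-free control.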
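For ΔLag (ratio of lag time with test compound to lag time of control) in this document: Aβ nucleation assay tracking fiber polymerization from monomer by turbidity (light scattering), shaken continuously in 96-well plates, read every 15 min over 5 h, compared with compound-free control.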

T1 sequence (P05067 672-711): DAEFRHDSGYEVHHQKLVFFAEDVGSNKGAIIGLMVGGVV

Consider `CC(C)C[C@H](NC(=O)[C@H](CCCCN)NC(=O)CC[C@@H](C)[C@H]1CC[C@H]2[C@@H]3[C@H](O)C[C@@H]4C[C@H](O)CC[C@]4(C)[C@H]3C[C@H](O)[C@]12C)C(=O)N[C@H](C(=O)N[C@@H](Cc1ccccc1)C(=O)N[C@@H](Cc1ccccc1)C(N)=O)C(C)C` [PPI-319, cholyl-Aβ16-20-amide], for which the “% Inhibition of Plateau” value on Aβ1-40 [1] is on record as ~ 0%. For the same compound, on Aβ1-40 [2], the inhibition at 100 % was found to be 70%. The “% Iext'n (percent reduction of thioflavin-T fluorescence)” value on Aβ1-40 [3] is given as 52%.

`C[C@H](NC(=O)[C@H](C)NC(=O)[C@H](C)NC(=O)[C@H](C)NC(=O)[C@H](C)NC(=O)CC[C@@H](C)[C@H]1CC[C@H]2[C@@H]3[C@H](O)C[C@@H]4C[C@H](O)CC[C@]4(C)[C@H]3C[C@H](O)[C@]12C)C(=O)O` [PPI-365, Cholyl-penta-alanine, reference compound]: the “% Inhibition of Plateau” value at Aβ1-40 [1] was ~ 0%. Also, on Aβ1-40 [2], the inhibition at 100 % was -7%. On Aβ1-40 [3], the “% Iext'n (percent reduction of thioflavin-T fluorescence)” value is 0%.

As to `CC(C)C[C@H](NC(=O)CC[C@@H](C)[C@H]1CC[C@H]2[C@@H]3[C@H](O)C[C@@H]4C[C@H](O)CC[C@]4(C)[C@H]3C[C@H](O)[C@]12C)C(=O)N[C@H](C(=O)N[C@@H](Cc1ccccc1)C(=O)N[C@@H](Cc1ccccc1)C(=O)N[C@@H](C)C(=O)O)C(C)C` [PPI-368, cholyl-Aβ17-21], the “% Inhibition of Plateau” value on Aβ1-40 [1] came out at 100%. Also, on Aβ1-40 [2], the inhibition at 100 % worked out at 100%. At Aβ1-40 [3], the “% Iext'n (percent reduction of thioflavin-T fluorescence)” value is on record as 91%.

Turning to `CC(C)C[C@H](NC(=O)[C@@H](N)CCCCN)C(=O)N[C@H](C(=O)N[C@@H](Cc1ccccc1)C(=O)N[C@@H](Cc1ccccc1)C(=O)O)C(C)C` [PPI-377, Aβ16-20], the “Fold Increase in Lag Time” value at Aβ1-40 [1] (Table IV, 100 mole %) was ~ 1 fold. The “ΔLag (ratio of lag time with test compound to lag time of control)” value on Aβ1-40 [1] came to 1.1. Besides, the inhibition at 100 % at Aβ1-40 [2] was determined as 0%. Besides, the “% Iext'n (percent reduction of thioflavin-T fluorescence)” value on Aβ1-40 [3] is given as 8%.

Consider `CC(C)C[C@H](N)C(=O)N[C@H](C(=O)N[C@@H](Cc1ccccc1)C(=O)N[C@@H](Cc1ccccc1)C(=O)N[C@@H](C)C(=O)O)C(C)C` [PPI-386], for which, on Aβ1-40 [1], the “ΔLag (ratio of lag time with test compound to lag time of control)” value came to 1.0. For the same compound, the inhibition at 100 % at Aβ1-40 [2] was 15%. Also, the “% Iext'n (percent reduction of thioflavin-T fluorescence)” value at Aβ1-40 [3] is reported as 11%.
